From PubChem BioAssay (NCI) come the findings set out here.

Structures are written as SMILES.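 Protocol summary: plate cells (96-well), add compound at 5 concentrations, incubate 48 h, interpolate endpoints linearly. The concentration for full growth arrest is given as TGI.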 Bounds are passed on as bounds.

Experiment in all cases: NCI tumour cell line growth inhibition, 48 h
The test system of test [1] is SK-MEL-2 melanoma.
Test [2] relates to BT-549 breast.
For test [3], the system named is SK-OV-3 ovarian.
Test [4] has as its system A498 renal.
Test [5] deals with HL-60(TB) leukemia.
In test [6] the test system is K-562 leukemia.
Test [7] relates to EKVX NSCLC.
In test [8] the test system is MCF7 breast.
Test [9] concerns SN12C renal.
The subject of test [10] is HCC-2998 colon.
Test [11] deals with UACC-257 melanoma.
Test [12] deals with U251 CNS.
Test [13] deals with HT29 colon.
Test [14] relates to SK-MEL-28 melanoma.
Test [15] has as its system MDA-N.
The test system of test [16] is HOP-62 NSCLC.
Test [17] deals with HOP-92 NSCLC.
Test [18] deals with ACHN renal.
Test [19] relates to MALME-3M melanoma.
Test [20] relates to SNB-19 CNS.

As to `c1ccc(CNc2nncc3[nH]cnc23)cc1`, the TGI in [1], in [2], in [3], in test [4], in test [5] and in [6] was above 100 µM throughout. The TGI in test [7], in test [8], in test [9], in test [10], in [11] and in [12] was above 100 µM each time. In addition, the TGI in test [13], in test [14], in [15], in test [16], in test [17] and in [18] was above 100 µM in each case. Further, in test [19], the TGI was above 100 µM.

Regarding `Nc1nc(-c2ccccc2)cc(-c2ccc(OCc3ccccc3)cc2O)n1`, the TGI in test [1], in test [2], in [4], in test [6], in test [7] and in test [8] was above 100 µM throughout. Moreover, the TGI in test [9], in test [10], in test [11], in test [12], in [13] and in test [14] was above 100 µM each time. Besides, the TGI in [15], in test [16], in [17], in test [20], in [18] and in test [19] was above 100 µM throughout.

`CCOC(=O)Cc1nc2cc(F)c(F)cc2[nH]c1=O`: the TGI in test [1], in [2], in [3], in [5], in [6] and in [7] was above 100 µM each time. Moreover, the TGI in [8], in [9], in [10], in test [11], in [12] and in test [13] was above 100 µM in each case. For the same molecule, the TGI in [14], in [15], in test [16], in test [17], in test [20] and in [18] was above 100 µM each time. Moreover, in [19], the TGI was above 100 µM.

As to `COC1=C(OC)C(=O)C(Cc2c(C)nc3sccn23)=C(C)C1=O`, the TGI amounted to 41.5 µM in test [1]; 31 µM in test [2]; 26.8 µM in test [3]; 38.3 µM in test [4]; 39.8 µM in test [6]; 29 µM in test [7]. The TGI was above 100 µM in [8]; 31 µM in test [9]; 40.3 µM in [10]; 20.7 µM in [11]; 33.1 µM in [12]; 32.2 µM in test [13]. Besides, the TGI in test [14] was 23.3 µM; in test [15] it was 26 µM; in test [16], 34.8 µM; in test [20], 33.3 µM; in [18] it was 30.1 µM; in [19], 31 µM.

With `CC(=O)Oc1ccc2cc(-c3ccccc3OC(C)=O)c(=O)oc2c1`, the TGI in test [1] was above 100 µM; in test [2] it was above 100 µM; in test [4] it was above 100 µM; in test [5], 24.4 µM; in test [6], above 100 µM; in test [7], above 100 µM. Further, the TGI in [8], in test [9], in test [10], in test [11], in test [12] and in test [13] was above 100 µM in each case. Further, the TGI in test [14], in test [15], in test [16], in test [20], in test [18] and in test [19] was above 100 µM throughout.

For `N#C/C(=C/NC(N)=S)C(N)=O`, the TGI in [1], in test [2], in test [3], in [4], in [5] and in [7] was above 100 µM in each case. Moreover, the TGI in [8], in [9], in test [10], in [11], in test [12] and in test [13] was above 100 µM throughout. Further, the TGI in test [14], in test [15], in test [16], in test [17], in [20] and in test [18] was above 100 µM in each case.

For the molecule `CC(C)=CCC(O)[C@](C)(O)[C@H]1[C@H](O)C[C@@]2(C)[C@@H]3CCc4cc(O)c(OC5OC(CO)C(O)C(O)C5O)cc4C3(C)C(=O)C[C@]12C` (some centres undefined), the TGI in test [1], in test [2], in test [3], in [4], in test [6] and in [7] was above 100 µM each time. For the same molecule, the TGI in [8], in test [9], in test [10], in [11], in test [12] and in test [13] was above 100 µM in each case. For the same molecule, the TGI in test [14], in [15], in test [16], in [17], in test [20] and in test [18] was above 100 µM throughout. This molecule registered a TGI in [19] above 100 µM.
